The values below come from ChEMBL document CHEMBL5614428, “Synthesis and antibacterial activities of heterocyclic ring-fused 20(S)-protopanaxadiol derivatives” (Bioorg Med Chem, 2024).

≈ marks a conversion by molar mass, not a printed value. Calls of active or inactive are those of the source. No cut-off for these calls is given here.

The subject of data set [1] is Staphylococcus aureus. Kind of data set: Antibacterial activity against methicillin-resistant Staphylococcus aureus NRS-108 assessed as inhibition of bacterial growth incubated for 18 hrs by two fold serial dilution assay. It is filed as functional.
In data set [2] the test system is Staphylococcus aureus. The data set is described as follows: Antibacterial activity against methicillin-resistant Staphylococcus aureus NRS-100 assessed as inhibition of bacterial growth incubated for 18 hrs by two fold serial dilution assay. The class given is functional.
For data set [3], the system named is Staphylococcus aureus. The data set is described as follows: Antibacterial activity against methicillin-resistant Staphylococcus aureus XJ036 assessed as inhibition of bacterial growth incubated for 18 hrs by two fold serial dilution assay. The class given is functional.
The subject of data set [4] is Staphylococcus aureus. Kind of data set: Antibacterial activity against Staphylococcus aureus Newman assessed as fold increase in inhibition of bacterial growth incubated for 18 hrs by two fold serial dilution assay relative to (S)-4-((1S,3aR,3bR,5aR,12aR,12bR,14R,14aR)-14-hydroxy-3a,3b,6,6,12a-pentamethyl-1,2,3,3a,3b,4,5,5a,6,7,12,12a,12b,13,14,14a-hexadecahydrocyclopenta[5,6]naphtho[2,1-b]carbazol-1-yl)pentane-1,4-diol. The class given is functional.

Data set [5] has as its system Staphylococcus aureus. Kind of data set: Antibacterial activity against Staphylococcus aureus Newman assessed as inhibition of bacterial growth incubated for 18 hrs by two fold serial dilution assay. The class given is functional.
The test system of data set [6] is Staphylococcus aureus. The data set is described as follows: Antibacterial activity against methicillin-resistant Staphylococcus aureus NRS-1 assessed as inhibition of bacterial growth incubated for 18 hrs by two fold serial dilution assay. It is filed as functional.
Data set [7] has as its system Staphylococcus aureus. The data set is described as follows: Antibacterial activity against methicillin-resistant Staphylococcus aureus USA300 infected in zebrafish assessed as increase in survival rate at 50 mg/kg,ip administration measured for 5 days relative to Vancomycin. It is filed as functional, organism-based. Particulars: time 5.0 day.
Data set [8] deals with Staphylococcus aureus. The data set is described as follows: Antibacterial activity against methicillin-resistant Staphylococcus aureus USA300 infected in zebrafish assessed as increase in survival rate at 25 mg/kg,ip administration measured for 5 days. It is filed as functional, organism-based. Particulars: time 5.0 day.
The subject of data set [9] is Staphylococcus aureus. Kind of data set: Antibacterial activity against methicillin-resistant Staphylococcus aureus XJ017 assessed as inhibition of bacterial growth incubated for 18 hrs by two fold serial dilution assay. It is filed as functional.
Data set [10] relates to Staphylococcus aureus. Kind of data set: Antibacterial activity against methicillin-resistant Staphylococcus aureus USA300 assessed as inhibition of bacterial growth incubated for 18 hrs by two fold serial dilution assay. It is filed as functional.
The subject of data set [11] is Staphylococcus aureus. Kind of data set: Antibacterial activity against methicillin-resistant Staphylococcus aureus NRS-271 assessed as inhibition of bacterial growth incubated for 18 hrs by two fold serial dilution assay. It is filed as functional.
Data set [12] has as its system Staphylococcus aureus. The data set is described as follows: Antibacterial activity against methicillin-resistant Staphylococcus aureus NRS-70 assessed as inhibition of bacterial growth incubated for 18 hrs by two fold serial dilution assay. The class given is functional.
Data set [13] is described as follows: Toxicity in Zebrafish at 25 to 75 mg/kg,ip administration measured upto 120 hrs. The conditions noted are these: in vivo, dose 25-75 mg/kg. It is filed as organism-based, Danio rerio.
Data set [14] deals with Staphylococcus aureus. The data set is described as follows: Antibacterial activity against methicillin-resistant Staphylococcus aureus USA300 assessed as fold increase in inhibition of bacterial growth incubated for 18 hrs by two fold serial dilution assay relative to (S)-4-((1S,3aR,3bR,5aR,13aR,13bR,15R,15aR)-15-hydroxy-3a,3b,6,6,13a-pentamethyl-2,3,3a,3b,4,5,5a,6,13,13a,13b,14,15,15a-tetradecahydro-1H-cyclopenta[5,6]naphtho[1,2-b]phenazin-1-yl)pentane-1,4-diol. It is filed as functional.

The term MIC denotes the lowest concentration found to suppress growth. Consider `CC1(C)c2nc3ccccc3nc2C[C@]2(C)[C@H]3C[C@@H](O)[C@@H]4[C@@H]([C@@](C)(O)CCC(=O)Nc5nccs5)CC[C@@]4(C)[C@]3(C)CC[C@@H]12`, for which the MIC was found to be 2 µg/mL (≈ 3.24 µM) in data set [1]; 4 µg/mL (≈ 6.48 µM) in data set [2]; 1 µg/mL (≈ 1.62 µM) in data set [3]; 1 µg/mL (≈ 1.62 µM) in [5]; 1 µg/mL (≈ 1.62 µM) in data set [6]; 0.5 µg/mL (≈ 0.811 µM) in data set [9]. In addition, the minimum inhibitory concentration (MIC) in data set [10], in data set [11] and in data set [12] was 1 µg/mL (≈ 1.62 µM) throughout. Further, in data set [4], the “fold change (FC)” value is reported as 4. Moreover, the result in data set [7] and in [8] was Active. Further, the Activity entry in [13] is given as “Non-Toxic”.

Regarding `CC1(C)c2nc3ccccc3nc2C[C@]2(C)[C@H]3C[C@@H](O)[C@@H]4[C@@H]([C@@](C)(O)CCC(=O)Nc5cnccn5)CC[C@@]4(C)[C@]3(C)CC[C@@H]12`, the MIC was 4 µg/mL (≈ 6.54 µM) in data set [1]; 4 µg/mL (≈ 6.54 µM) in [2]; 4 µg/mL (≈ 6.54 µM) in [3]; 2 µg/mL (≈ 3.27 µM) in data set [5]; greater than 64 µg/mL in data set [6]; 16 µg/mL (≈ 26.2 µM) in data set [9]. Besides, the MIC in data set [10] stood at 2 µg/mL (≈ 3.27 µM); in [11], 8 µg/mL (≈ 13.1 µM); in data set [12], 4 µg/mL (≈ 6.54 µM).

With `CC1(C)c2nc3ccccc3nc2C[C@]2(C)[C@H]3C[C@@H](O)[C@@H]4[C@@H]([C@@](C)(O)CCC(N)=O)CC[C@@]4(C)[C@]3(C)CC[C@@H]12`, the MIC in data set [1], in [2], in [3], in data set [5], in data set [6] and in data set [9] was 4 µg/mL (≈ 7.49 µM) in each case. Further, the MIC in [10], in data set [11] and in data set [12] was 4 µg/mL (≈ 7.49 µM) in each case. Also, the “fold change (FC)” value in [14] is 2.
